Measured values as given in patent US20220288404A1, “METHODS FOR APPLYING TUMOR TREATING FIELDS IN COMBINATION WITH CANCER TREATING THERAPEUTICS” (THE BOARD OF REGENTS OF THE UNIVERSITY OF TEXAS SYSTEM, priority 2021, published 2022).

Key:
Type in all cases: cell-based
Panc-1 cells = test: Clonogenic cell survival assay, Panc-1 cells; conditions: for CI AZD + 2Gy / CI TTFields + 2Gy + AZD / CI TTFields + AZD / CI 2Gy + Olap / CI TTFields + 2Gy + Olap / CI TTFields + Olap: CI>1 synergistic; for surviving fraction: agent as shown in figure
Method: (§1) Using certain embodiments disclosed herein, TTFields in combination with various inhibitors and/or radiation treatment (IR) were applied to NSCLC cells or pancreatic cancer cells. For example, a predetermined inhibitor at a predetermined concentration was delivered to NSCLC cells or pancreatic cancer cells, and the cells were immediately exposed to TTFields (e.g., 100-250 kHz and 1-20 V/cm v/cm) for about 24, […], or 72 hours. The predetermined concentration was a cell line specific concentration for optimal target cell killing.
(§2) Olaparib was given concomitant with TTFields. Radiation was given 24, 48 or 72 h after the initiation of TTFields and specific agents. […] Values greater than 1.0 are considered as synergistic, that is, greater than the sum of the individual responses. The following formulas were used for calculating CI: SF=Survival Fraction; CI (TTFields)+(2Gy)=(SF2Gy×SFTTFields)/SF2Gy+TTFields; CI(TTFields)+(Olap)=(SFOlap×SFTTFields)/SFOlap+TTFields; CI (2Gy)+(Olap)=(SF2Gy×SFOlap)/SF2Gy+Olap; and CI (TTFields)+(2Gy)+(Olap)=(SF2Gy×SFOlap×SFTTFields)/SFTTFields+2Gy+Olap. […] Based upon the Highest Single Agent […] approach. The calculation for the Combination Index can be found below.
(§3) FIGS. 4 and 5 depict example effects of TTFields, AZD6738, radiation, and a combination thereof on non-small cell lung cancer cells (NSCLC) and pancreatic cancer cell, respectively. In particular, FIGS. 4 and 5 show TTFields exposure synergistically increases the effects of ATR inhibitor AZD6738 on NSLCL cells (FIG. 4) survival and pancreatic cancer cell (FIG. 5) survival. TTFields were used together with ATR inhibitor AZD6738 and radiation (IR). A synergistic effect was observed when AZD6738 and IR were combined with TTFields using the highest single agent (HSA) approach. The following formulas were used for calculating CI: SF=Survival Fraction; CI (TTFields)+(2Gy)=(SF2Gy×SFTTFields)/SF2Gy+TTFields; CI(TTFields)+(AZD)=(SFAZD×SFTTFields)/SFAZD+TTFields; CI (2Gy)+(AZD)=(SF2Gy×SFAZD)/SF2Gy+AZD; and CI (TTFields)+(2Gy)+(AZD)=(SF2Gy×SFAZD×SFTTFields)/SFTTFields+2Gy+AZD.
(§4) The following formulas are used for calculating the combination Index: SF=Survival Fraction; CI (TTFields)+(2Gy)=(SF2Gy×SFTTFields)/SF2Gy+TTFields; CI(TTFields)+(Irino)=(SFIrino×SFTTFields)/SFIrino+TTFields; CI (2Gy)+(Irino)=(S2Gy×SFIrino)SF2Gy+Irino; and CI (TTFields)+(2Gy)+(Irino)=(SF2Gy×SFIrino×SFTTFields)/SFTTFields+2Gy+Irino.

H157 cells [1] = test: Clonogenic cell survival assay, H157 cells; conditions: for CI AZD + 2Gy / CI TTFields + 2Gy + AZD / CI TTFields + AZD / CI TTFields + ETOP: CI>1 synergistic
Method: as §1, with “killing. Then, the cells were irradiated (at a dose of 2Gy) for less than a minute (e.g., 3.25 Gy/min) and immediately plated for survival.” for “killing.”
as §3, §4

04.03 cells = test: Clonogenic cell survival assay, 04.03 cells; conditions: for CI AZD + 2Gy / CI TTFields + 2Gy + AZD / CI TTFields + AZD / CI 2Gy + Olap / CI TTFields + 2Gy + Olap / CI TTFields + Olap: CI>1 synergistic; for surviving fraction: agent as shown in figure
Method: as §1, §2, §3

H157 cells [2] = test: Clonogenic cell survival assay, H157 cells; conditions: 48 h, CI>1 synergistic
H1299 cells [3] = test: Clonogenic cell survival assay, H1299 cells; conditions: 48 h, CI>1 synergistic
H1299 cells [4] = test: Clonogenic cell survival assay, H1299 cells; conditions: for CI AZD + 2Gy / CI TTFields + 2Gy + AZD / CI TTFields + AZD / CI TTFields + ETOP: CI>1 synergistic
Method: as §1, with “killing. Then, the cells were irradiated (at a dose of 2Gy) for less than a minute (e.g., 3.25 Gy/min) and immediately plated for survival.” for “killing.”
as §3, §4

NSCLC = test: Cell survival of NSCLC cells with CP/ETP with/without TTFields (FIG. 6); conditions: HSA approach
Method: as §1, with “killing. Then, the cells were irradiated (at a dose of 2Gy) for less than a minute (e.g., 3.25 Gy/min) and immediately plated for survival.” for “killing.”
FIG. 6 depicts example effects of TTFields, Cisplatin, Etoposide, and a combination thereof on NSCLC. […] CP and ETP were tested alone or in combination and with/without TTFields.

Q: How did the “effect of combinations of TTFields, agent and/or IR on cell survival” value (shortened to “effect of combinations of TTFields”) (Panc-1 cells) turn out when C[C@@H]1COCCN1c1cc(C2([S@](C)(=N)=O)CC2)nc(-c2cc[nH]c3nccc2-3)n1 [AZD, Ceralasertib (AZD6738)] was run?
A: synergistic effects

Q: What about the “CI AZD + 2Gy” value (Panc-1 cells; 24 h) of the same molecule?
A: 0.894

Q: What about the “CI TTFields + 2Gy + AZD” value (Panc-1 cells; 24 h) of the same molecule?
A: 1.068

Q: What about the “CI TTFields + AZD” value (Panc-1 cells; 24 h) of the same molecule?
A: 1.088

Q: What about the “CI AZD + 2Gy” value (Panc-1 cells; 48 h) of the same molecule?
A: 0.879

Q: What about the “CI TTFields + 2Gy + AZD” value (Panc-1 cells; 48 h) of the same molecule?
A: 1.153

Q: What about the “CI TTFields + AZD” value (Panc-1 cells; 48 h) of the same molecule?
A: 0.970

Q: What about the “CI AZD + 2Gy” value (Panc-1 cells; 72 h) of the same molecule?
A: 1.030

Q: And the “CI TTFields + 2Gy + AZD” value (Panc-1 cells; 72 h)?
A: 1.514

Q: And the “CI TTFields + AZD” value (Panc-1 cells; 72 h)?
A: 1.072

Q: What about the surviving fraction (Panc-1 cells) of the same molecule?
A: significantly reduced

Q: What about the “effect of combinations of TTFields” value (H157 cells [1]) of the same molecule?
A: synergistic effects

Q: And the “CI AZD + 2Gy” value (H157 cells [1]; 24 h)?
A: 1.498

Q: And the “CI TTFields + 2Gy + AZD” value (H157 cells [1]; 24 h)?
A: 2.430

Q: And the “CI TTFields + AZD” value (H157 cells [1]; 24 h)?
A: 1.048

Q: What about the “CI AZD + 2Gy” value (H157 cells [1]; 48 h) of the same molecule?
A: 1.292

Q: What about the “CI TTFields + 2Gy + AZD” value (H157 cells [1]; 48 h) of the same molecule?
A: 2.062

Q: And the “CI AZD + 2Gy” value (H157 cells [1]; 72 h)?
A: 3.115

Q: What about the “CI TTFields + 2Gy + AZD” value (H157 cells [1]; 72 h) of the same molecule?
A: 4.874

Q: What about the “CI TTFields + AZD” value (H157 cells [1]; 72 h) of the same molecule?
A: 1.036

Q: And the surviving fraction (H157 cells [1]; agent as shown in figure)?
A: significantly reduced

Q: What about the “effect of combinations of TTFields” value (04.03 cells) of the same molecule?
A: synergistic effects

Q: What about the “CI AZD + 2Gy” value (04.03 cells; 24 h) of the same molecule?
A: 1.018

Q: And the “CI TTFields + 2Gy + AZD” value (04.03 cells; 24 h)?
A: 1.272

Q: What about the “CI TTFields + AZD” value (04.03 cells; 24 h) of the same molecule?
A: 1.049

Q: What about the “CI AZD + 2Gy” value (04.03 cells; 48 h) of the same molecule?
A: 1.158

Q: What about the “CI TTFields + 2Gy + AZD” value (04.03 cells; 48 h) of the same molecule?
A: 2.394

Q: What about the “CI TTFields + AZD” value (04.03 cells; 48 h) of the same molecule?
A: 1.550

Q: What about the “CI AZD + 2Gy” value (04.03 cells; 72 h) of the same molecule?
A: 1.011

Q: What about the “CI TTFields + 2Gy + AZD” value (04.03 cells; 72 h) of the same molecule?
A: 2.674

Q: And the “CI TTFields + AZD” value (04.03 cells; 72 h)?
A: 1.287

Q: What about the surviving fraction (04.03 cells) of the same molecule?
A: significantly reduced

Q: What about the “CI TTFields + AZD” value (H157 cells [2]) of the same molecule?
A: 1.072

Q: What about the “CI AZD + 2Gy” value (H1299 cells [3]) of the same molecule?
A: 1.215

Q: And the “CI TTFields + AZD” value (H1299 cells [3])?
A: 1.242

Q: And the “effect of combinations of TTFields” value (H1299 cells [4])?
A: synergistic effects

Q: What about the “CI AZD + 2Gy” value (H1299 cells [4]; 24 h) of the same molecule?
A: 1.127

Q: And the “CI TTFields + 2Gy + AZD” value (H1299 cells [4]; 24 h)?
A: 3.553

Q: What about the “CI TTFields + AZD” value (H1299 cells [4]; 24 h) of the same molecule?
A: 1.070

Q: And the “CI TTFields + 2Gy + AZD” value (H1299 cells [4]; 48 h)?
A: 2.535

Q: And the “CI AZD + 2Gy” value (H1299 cells [4]; 72 h)?
A: 1.143

Q: What about the “CI TTFields + 2Gy + AZD” value (H1299 cells [4]; 72 h) of the same molecule?
A: 2.206

Q: And the “CI TTFields + AZD” value (H1299 cells [4]; 72 h)?
A: 1.092

Q: What about the surviving fraction (H1299 cells [4]; agent as shown in figure) of the same molecule?
A: significantly reduced

Q: Which “effect of combinations of TTFields” value (Panc-1 cells) does the source give for O=C(c1cc(Cc2n[nH]c(=O)c3ccccc23)ccc1F)N1CCN(C(=O)C2CC2)CC1 [Olap, Olaparib] here?
A: synergistic effects

Q: What about the “CI 2Gy + Olap” value (Panc-1 cells; 24 h) of the same molecule?
A: 0.890

Q: And the “CI TTFields + 2Gy + Olap” value (Panc-1 cells; 24 h)?
A: 1.589

Q: And the “CI TTFields + Olap” value (Panc-1 cells; 24 h)?
A: 1.035

Q: And the “CI 2Gy + Olap” value (Panc-1 cells; 48 h)?
A: 0.975

Q: And the “CI TTFields + 2Gy + Olap” value (Panc-1 cells; 48 h)?
A: 1.817

Q: What about the “CI TTFields + Olap” value (Panc-1 cells; 48 h) of the same molecule?
A: 1.209

Q: And the “CI 2Gy + Olap” value (Panc-1 cells; 72 h)?
A: 1.030

Q: What about the “CI TTFields + 2Gy + Olap” value (Panc-1 cells; 72 h) of the same molecule?
A: 2.028

Q: What about the “CI TTFields + Olap” value (Panc-1 cells; 72 h) of the same molecule?
A: 1.215

Q: And the surviving fraction (Panc-1 cells)?
A: significantly reduced

Q: What about the “effect of combinations of TTFields” value (04.03 cells) of the same molecule?
A: synergistic effects

Q: And the “CI 2Gy + Olap” value (04.03 cells; 24 h)?
A: 1.550

Q: What about the “CI TTFields + 2Gy + Olap” value (04.03 cells; 24 h) of the same molecule?
A: 2.863

Q: And the “CI TTFields + Olap” value (04.03 cells; 24 h)?
A: 1.101

Q: What about the “CI 2Gy + Olap” value (04.03 cells; 48 h) of the same molecule?
A: 1.582

Q: And the “CI TTFields + 2Gy + Olap” value (04.03 cells; 48 h)?
A: 2.066

Q: And the “CI TTFields + Olap” value (04.03 cells; 48 h)?
A: 0.973

Q: What about the “CI 2Gy + Olap” value (04.03 cells; 72 h) of the same molecule?
A: 1.462

Q: What about the “CI TTFields + 2Gy + Olap” value (04.03 cells; 72 h) of the same molecule?
A: 3.818

Q: What about the “CI TTFields + Olap” value (04.03 cells; 72 h) of the same molecule?
A: 1.042

Q: What about the surviving fraction (04.03 cells) of the same molecule?
A: significantly reduced

Q: Which results are given for COc1cc([C@@H]2c3cc4c(cc3[C@@H](O[C@@H]3O[C@@H]5CO[C@@H](C)O[C@H]5[C@H](O)[C@H]3O)[C@H]3COC(=O)[C@H]23)OCO4)cc(OC)c1O [ETOP, Etoposide]?
A: CI TTFields + ETOP (H157 cells [1]; 24 h): 0.842; CI TTFields + ETOP (H157 cells [1]; 72 h): 1.021; cell killing capacity in combination with TTFields (NSCLC): synergistically enhanced; CI TTFields + ETOP (H157 cells [2]): 0.995; CI TTFields + ETOP (H1299 cells [4]; 24 h): 1.387; CI TTFields + ETOP (H1299 cells [4]; 48 h): 1.174; CI TTFields + ETOP (H1299 cells [4]; 72 h): 1.140
